pIC50: −log10 of the molar value. Read-outs that look alike come from different tables or passages of the source. Each block holds one compound with its values, some of them ahead of it.
Experiments:
[1] = tested on: WT SV40 MEF (wild-type immortalized mouse embryonic fibroblast); experiment: Cytotoxic activity in wild-type fibroblasts; assay type: cell-based; conditions: WT SV40 MEF cell line
Excerpt: (§1) MCF7 (human breast carcinoma), HCT116 (human colon carcinoma), HepG2 (human hepatocellular carcinoma), SCC-9 (human oral squamous cell carcinoma), HSC-3 (human oral squamous cell carcinoma), HL-60 (human promyelocytic leukemia), K-562 (human chronic myelogenous leukemia), B16-F10 (murine melanoma), MRC-5 (human lung fibroblast), WT SV40 MEF (wild-type immortalized mouse embryonic fibroblast), and BAD KO SV40 MEF (BAD gene knockout immortalized mouse embryonic fibroblast) cell lines were obtained from the American Type Culture Collection (ATCC, Manassas, VA, USA). Cells were cultured in complete medium with appropriate supplements as recommended by ATCC. All cell lines were tested for mycoplasma using the Mycoplasma Stain Kit (Sigma-Aldrich) to validate the use of cells free from contamination. Primary cell culture of peripheral blood mononuclear cells (PBMC) was obtained by standard Ficoll density protocol. The Research Ethics Committee of the Oswaldo Cruz Foundation (Salvador, BA, Brazil) approved the experimental protocol (number 031019/2013). Cell viability was examined using trypan blue exclusion assay for all experiments.
(§2) Cell viability was quantified using the alamarBlue assay according to Ahmed et al.. Cells were inserted in 96-well plates for all experiments (7 × 10^4 cells/mL for adherent cells or 3 × 10^5 cells/mL for suspended cells in 100 μL of medium). After 24 h, xylopine was dissolved in dimethyl sulfoxide (DMSO) and added to each well and incubated for 72 h. […] Four (for cell lines) or 24 h (for PBMCs) before the end of incubation, 20 μL of a stock solution (0.312 mg/mL) of the alamarBlue (resazurin, Sigma-Aldrich Co., Saint Louis, MO, USA) was added to each well. Absorbance at 570 nm and 600 nm was measured using the SpectraMax 190 Microplate Reader (Molecular Devices, Sunnyvale, CA, USA), and the drug effect was quantified as the percentage of control absorbance.

[2] = tested on: BAD KO SV40 MEF (BAD gene knockout immortalized mouse embryonic fibroblast); experiment: Cytotoxic activity in BAD gene knockout fibroblasts; assay type: cell-based; conditions: BAD KO SV40 MEF cell line
Excerpt: as §1, §2

[3] = tested on: HCT116 cells; assay type: cell-based, human; conditions: for cell cycle block: OXA 2.5 μM
Method: Cells were harvested in a permeabilization solution containing 0.1% Triton X-100 (Sigma Chemical Co., St Louis, MO, USA), 2 μg/mL propidium iodide (Sigma Chemical Co.), 0.1% sodium citrate, and 100 μg/mL RNAse (Sigma Chemical Co.) and incubated in the dark for 15 min at room temperature. Finally, cell fluorescence was measured by flow cytometry on a BD LSRFortessa cytometer using the BD FACSDiva software (BD Biosciences) and FlowJo software 10 (FlowJo, LCC, Ashland, OR, USA).

[4] = tested on: cancer multicellular spheroids formed from HCT116 cells; experiment: 3D multicellular spheroids culture, alamarBlue assay, 72 h; assay type: cell-based, human; conditions: 3D spheroids of HCT116, alamarBlue, 72 h
Method: HCT116 cells were cultivated in three-dimensional (3D) multicellular spheroids. Briefly, 100 μL of a solution of cells (0.5 × 10^6 cells/mL) was inserted in 96-well plates with a cell-repellent surface (Greiner Bio-One, Kremsmünster, Austria) and cultured in complete medium plus 3% Matrigel (BD Biosciences, San Jose, CA, USA). Spheroids with stable structures had formed after three days. Then, the spheroids were exposed to a range of drug concentrations for 72 h, after which the cell viability was quantified by alamarBlue assay as described above.

[5] = tested on: HCT116 cells; experiment: Cell viability by trypan blue exclusion assay; assay type: cell-based, human; conditions: HCT116, trypan blue, DOX 1 μM, OXA 2.5 μM, 24 and 48 h
Excerpt: as §1

[6] = tested on: calf thymus DNA (ctDNA); experiment: DNA intercalation assay (ethidium bromide displacement); assay type: binding; conditions: doxorubicin 10 μM, data not shown
Method: DNA intercalation was assessed by examining the ability of xylopine to displace ethidium bromide from calf thymus DNA (ctDNA, Sigma-Aldrich Co.). The assay was conducted in 96-well plates and contained 15 μg/mL ctDNA, 1.5 μM ethidium bromide, and 10 or 20 μM xylopine in 100 μL saline solution. […] Fluorescence was measured using excitation and emission wavelengths of 320 and 600 nm, respectively.

[7] = tested on: HL-60 (human promyelocytic leukemia); experiment: Cytotoxic activity, alamarBlue assay, 72 h; assay type: cell-based; conditions: for pIC50: HL-60, alamarBlue, 72 h;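 on Selectivity index: SI is noncancer IC50 (MRC-5 or PBMC) divided by cancer cell IC50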
Excerpt: as §1, §2

[8] = tested on: K562 (human chronic myelogenous leukemia); experiment: Cytotoxic activity, alamarBlue assay, 72 h; assay type: cell-based; conditions: for pIC50: K562, alamarBlue, 72 h;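 on Selectivity index: SI is noncancer IC50 (MRC-5 or PBMC) divided by cancer cell IC50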
Excerpt: as §1, §2

[9] = tested on: HepG2 (human hepatocellular carcinoma); experiment: Cytotoxic activity, alamarBlue assay, 72 h; assay type: cell-based; conditions: for pIC50: HepG2, alamarBlue, 72 h
Excerpt: as §1, §2

[10] = tested on: B16-F10 (murine melanoma); experiment: Cytotoxic activity, alamarBlue assay, 72 h; assay type: cell-based; conditions: for pIC50: B16-F10, alamarBlue, 72 h
Excerpt: as §1, §2

[11] = tested on: MCF7 (human breast carcinoma); experiment: Cytotoxic activity, alamarBlue assay, 72 h; assay type: cell-based; conditions: for pIC50: MCF7, alamarBlue, 72 h;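 on Selectivity index: SI is noncancer IC50 (MRC-5 or PBMC) divided by cancer cell IC50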
Excerpt: as §1, §2

[12] = tested on: HSC3 (human oral squamous cell carcinoma); experiment: Cytotoxic activity, alamarBlue assay, 72 h; assay type: cell-based; conditions: for pIC50: HSC3, alamarBlue, 72 h
Excerpt: as §1, §2

[13] = tested on: HCT116 (human colon carcinoma); experiment: Cytotoxic activity, alamarBlue assay, 72 h; assay type: cell-based; conditions: for pIC50: HCT116, alamarBlue, 72 h;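 on Selectivity index: SI is noncancer IC50 (MRC-5 or PBMC) divided by cancer cell IC50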
Excerpt: as §1, §2

[14] = tested on: SCC9 (human oral squamous cell carcinoma); experiment: Cytotoxic activity, alamarBlue assay, 72 h; assay type: cell-based
Excerpt: as §1, §2

[15] = tested on: HCT116 cells; experiment: Morphological analysis (May-Grünwald-Giemsa); assay type: cell-based, human; conditions: 24 and 48 h, DOX 1 μM, OXA 2.5 μM
Method: To evaluate alterations in morphology, cells were cultured under coverslip and stained with May-Grünwald-Giemsa. Morphological changes were examined by light microscopy using Image-Pro software.

[16] = tested on: MRC5 (human lung fibroblast); experiment: Cytotoxic activity, alamarBlue assay, 72 h (noncancer cells); assay type: cell-based
Excerpt: as §1, §2

[17] = tested on: PBMC (human peripheral blood mononuclear cells); experiment: as above; assay type: cell-based
Excerpt: as §1, §2

[18] = HCT116, DOX 1 μM, 24 h incubation
[19] = HCT116, DOX 1 μM, 48 h incubation
[20] = HCT116, OXA 2.5 μM, 24 h incubation
[21] = HCT116, OXA 2.5 μM, 48 h incubation

SMILES: O=c1[nH]cc(F)c(=O)[nH]1 [5-FU, 5-fluorouracil]
pIC50 [1]: 5.77 | pIC50 [2]: 5.14

IC50 ([4]; Homo sapiens, HCT-116): 4.5 µM
SMILES: COc1cccc2c1C(=O)c1c(O)c3c(c(O)c1C2=O)C[C@@](O)(C(=O)CO)C[C@@H]3O[C@H]1C[C@H](N)[C@H](O)[C@H](C)O1 [DOX, doxorubicin]
DNA content (%) G0/G1 [3, 18]: 28.0 ± 6.3% | DNA content (%) G2/M [3, 18]: 44.1 ± 3.4^∗ % | DNA content (%) S [3, 18]: 10.0 ± 2.5% | DNA content (%) Sub-G0/G1 [3, 18]: 9.7 ± 2.5% | DNA content (%) G0/G1 [3, 19]: 22.5 ± 4.0^∗ % | DNA content (%) G2/M [3, 19]: 44.2 ± 4.4^∗ % | DNA content (%) S [3, 19]: 14.9 ± 2.5% | DNA content (%) Sub-G0/G1 [3, 19]: 18.3 ± 2.5% | cell cycle block ([3]; HCT116, DOX 1 μM): caused cell cycle block at the phase G2/M | pIC50 [1]: 7.52 | pIC50 [2]: 6.40 | number of viable cells [5]: reduced the number of viable cells | displacement of ethidium bromide from ctDNA (fluorescence intensity) [6]: significantly reduced the fluorescence intensity | pIC50 ([7]; Homo sapiens): 6.52 | Selectivity index ([7]; IC50(MRC5)/IC50(HL-60)): 5 | Selectivity index ([7]; IC50(PBMC)/IC50(HL-60)): 17.3 | pIC50 ([8]; Homo sapiens): 6.52 | Selectivity index ([8]; IC50(MRC5)/IC50(K-562)): 5 | Selectivity index ([8]; IC50(PBMC)/IC50(K-562)): 17.3 | pIC50 ([9]; Homo sapiens): 7.00 | Selectivity index ([9]; IC50(MRC5)/IC50(HepG2)): 15 | Selectivity index ([9]; IC50(PBMC)/IC50(HepG2)): 52 | Selectivity index ([10]; IC50(MRC5)/IC50(B16-F10)): 50 | Selectivity index ([10]; IC50(PBMC)/IC50(B16-F10)): 173.3 | pIC50 ([10]; Mus musculus): 7.52 | pIC50 ([11]; Homo sapiens): 5.96 | Selectivity index ([11]; IC50(MRC5)/IC50(MCF7)): 1.4 | Selectivity index ([11]; IC50(PBMC)/IC50(MCF7)): 4.7 | pIC50 ([12]; Homo sapiens, HSC-3): 6.52 | Selectivity index ([12]; IC50(MRC5)/IC50(HSC-3)): 5 | Selectivity index ([12]; IC50(PBMC)/IC50(HSC-3)): 17.3 | pIC50 ([13]; Homo sapiens, HCT-116): 7.00 | Selectivity index ([13]; IC50(MRC5)/IC50(HCT116)): 15 | Selectivity index ([13]; IC50(PBMC)/IC50(HCT116)): 52 | pIC50 ([14]; Homo sapiens, SCC-9, SCC9, alamarBlue, 72 h): 6.30 | Selectivity index ([14]; IC50(MRC5)/IC50(SCC-9)): 3 | cell morphology [15]: cell shrinkage, chromatin condensation, and nuclear fragmentation | pIC50 ([16]; Homo sapiens): 5.82 | pIC50 ([17]; Homo sapiens): 5.28

SMILES: O=C1[O][Pt]2([NH][C@@H]3CCCC[C@H]3[NH]2)[O]C1=O [OXA, oxaliplatin, reference compound]
cell cycle block ([3]; HCT116, DOX 1 μM): caused cell cycle block at the phase G2/M | DNA content (%) G0/G1 [3, 20]: 32.4 ± 3.7% | DNA content (%) G2/M [3, 20]: 39.9 ± 1.5% | DNA content (%) S [3, 20]: 13.5 ± 3.1% | DNA content (%) Sub-G0/G1 [3, 20]: 8.8 ± 3.5% | DNA content (%) G0/G1 [3, 21]: 36.2 ± 2.6% | DNA content (%) G2/M [3, 21]: 32.2 ± 4.4% | DNA content (%) S [3, 21]: 7.6 ± 0.4% | DNA content (%) Sub-G0/G1 [3, 21]: 17.7 ± 1.9% | IC50 [4]: 6 µM | number of viable cells [5]: reduced the number of viable cells | pIC50 [7]: 6.40 | pIC50 [8]: 6.05 | pIC50 [9]: 6.00 | pIC50 [10]: 7.00 | pIC50 [11]: 5.23 | pIC50 [12]: 5.48 | pIC50 [13]: 5.39 | cell morphology [15]: cell shrinkage, chromatin condensation, and nuclear fragmentation | pIC50 [16]: 5.82 | pIC50 [17]: 4.83

Source: publication PMC5736936, “Xylopine Induces Oxidative Stress and Causes G2/M Phase Arrest, Triggering Caspase-Mediated Apoptosis by p53-Independent Pathway in HCT116 Cells” (Oxidative Medicine and Cellular Longevity, 2017)
